According to PubChem BioAssay AID218 (DTP/NCI, 2004):
Several values for one entry are separate records, joined by “and”; a condition that tells them apart may be missing. Equal entries are not always repeated.

System: C57BL/6 mice, Adenocarcinoma 755 sc, tumor weight T/C
Assay: NCI In Vivo Anticancer Drug Screen. Data for tumor model Adenocarcinoma 755 (subcutaneous) in C57BL/6 mice
Details: endpoint: mean tumor weight, higher = larger tumour
Procedure: The antitumor activity of compounds was measured in mice bearing transplantable tumors. Survival or tumor size were measured and the results are expressed as the measurement made in the treated group (T) divided by the measurement made in the vehicle treated control group (C). The tumor model used in this assay is Adenocarcinoma 755 (subcutaneous) in C57BL/6 mice

[1] = dose: 0.1 mg/kg/injection, schedule: Q01DX011 (ip), vehicle: saline
[2] = dose: 0.2 mg/kg/injection, schedule: Q01DX011 (ip), vehicle: saline
[3] = dose: 15.0 mg/kg/injection, schedule: Q01DX011 (ip), vehicle: saline
[4] = dose: 50.0 mg/kg/injection, schedule: Q01DX011 (ip), vehicle: saline
[5] = dose: 20.0 mg/kg/injection, schedule: Q01DX011 (ip), vehicle: saline
[6] = dose: 40.0 mg/kg/injection, schedule: Q01DX011 (ip), vehicle: saline
[7] = dose: 25.0 mg/kg/injection, schedule: Q01DX011 (ip), vehicle: saline
[8] = dose: 10.0 mg/kg/injection, schedule: Q02DX006 (ip), vehicle: other
[9] = dose: 300.0 mg/kg/injection, schedule: Q01DX011 (ip), vehicle: saline
[10] = dose: 150.0 mg/kg/injection, schedule: Q02DX006 (ip), vehicle: saline
[11] = dose: 200.0 mg/kg/injection, schedule: Q02DX006 (ip), vehicle: saline
[12] = dose: 75.0 mg/kg/injection, schedule: Q01DX011 (ip), vehicle: saline
[13] = dose: 150.0 mg/kg/injection, schedule: Q01DX011 (ip), vehicle: saline

S=c1nc[nH]c2nc[nH]c12.[Cd]
T/C [1]: 60 % of control | T/C [2]: 76 % of control | T/C (dose: 0.4 mg/kg/injection, schedule: Q01DX011 (ip), vehicle: saline): 60 % of control | T/C (dose: 0.8 mg/kg/injection, schedule: Q01DX011 (ip), vehicle: saline): 49 % of control

CCCNc1ncnc2[nH]ncc12
T/C (dose: 10.0 mg/kg/injection, schedule: Q01DX011 (ip), vehicle: saline): 62 % of control | T/C [3]: 39 % of control

O=C(O)c1[nH]c(=O)[nH]c(=O)c1Br
T/C [4]: 54 % of control

CN(CC(=O)O)C(=N)N
T/C (dose: 250.0 mg/kg/injection, schedule: Q01DX011 (ip), vehicle: saline): 105 % of control | T/C (dose: 500.0 mg/kg/injection, schedule: Q01DX011 (ip), vehicle: saline): 110 % of control | T/C (dose: 1000.0 mg/kg/injection, schedule: Q01DX011 (ip), vehicle: saline): 57 % of control | T/C (dose: 2000.0 mg/kg/injection, schedule: Q01DX011 (ip), vehicle: saline): 102 % of control

O=C(c1ccc(C(=O)N2CC2)cc1)N1CC1
T/C (dose: 12.5 mg/kg/injection, schedule: Q01DX011 (ip), vehicle: methylcellulose (MC)): 60 % of control | T/C (dose: 25.0 mg/kg/injection, schedule: Q01DX011 (ip), vehicle: methylcellulose (MC)): 53 % of control

C=CC(CN1CC1)OC(C)=O (stereo not given)
T/C (dose: 1.0 mg/kg/injection, schedule: Q01DX011 (oral), vehicle: saline): 63 % of control | T/C (dose: 1.0 mg/kg/injection, schedule: Q#A X022 (ip), vehicle: saline): 92 % of control | T/C (dose: 2.0 mg/kg/injection, schedule: Q01DX011 (ip), vehicle: saline): 66 % of control | T/C (dose: 2.0 mg/kg/injection, schedule: Q01DX011 (oral), vehicle: saline): 49 % of control | T/C (dose: 2.0 mg/kg/injection, schedule: Q#A X022 (ip), vehicle: saline): 43 % of control | T/C (dose: 3.25 mg/kg/injection, schedule: Q01DX011 (oral), vehicle: saline): 38 % of control | T/C (dose: 4.0 mg/kg/injection, schedule: Q01DX011 (ip), vehicle: saline): 38 % of control | T/C (dose: 4.0 mg/kg/injection, schedule: Q01DX011 (oral), vehicle: saline): 26 % of control | T/C (dose: 4.0 mg/kg/injection, schedule: Q01DX011 (sc), vehicle: saline): 14 % of control | T/C (dose: 6.0 mg/kg/injection, schedule: Q03DX004 (ip), vehicle: saline): 88 % of control | T/C (dose: 7.5 mg/kg/injection, schedule: Q01DX011 (oral), vehicle: saline): 15 % of control | T/C (dose: 8.0 mg/kg/injection, schedule: Q01DX011 (ip), vehicle: saline): 17 % of control | T/C (dose: 8.0 mg/kg/injection, schedule: Q01DX011 (oral), vehicle: saline): 21 % of control | T/C (dose: 8.0 mg/kg/injection, schedule: Q01DX011 (sc), vehicle: saline): 8 % of control | T/C (dose: 12.0 mg/kg/injection, schedule: Q03DX004 (ip), vehicle: saline): 59 % of control | T/C (dose: 16.0 mg/kg/injection, schedule: Q01DX011 (oral), vehicle: saline): 5 % of control | T/C (dose: 24.0 mg/kg/injection, schedule: Q03DX004 (ip), vehicle: saline): 11 % of control

O=C(O)c1cc(=O)[nH]c(=S)[nH]1
T/C [5]: 91 % of control | T/C (dose: 30.0 mg/kg/injection, schedule: Q01DX011 (ip), vehicle: saline): 121 % of control | T/C [6]: 78 % of control | T/C [4]: 82 % of control

CS(=O)(=O)OCCCOS(C)(=O)=O
T/C (dose: 15.0 mg/kg/injection, schedule: Q01DX011 (ip), vehicle: methylcellulose (MC)): 83 % of control | T/C (dose: 30.0 mg/kg/injection, schedule: Q01DX011 (ip), vehicle: methylcellulose (MC)): 35 % of control

CCCCNc1ncnc2[nH]ncc12
T/C [3]: 31 % of control | T/C [5]: 7 % of control | T/C [7]: 24 % of control

C1CN1c1nc(N2CC2)nc(N2CC2)n1
T/C [1]: 28 % of control | T/C (dose: 0.11 mg/kg/injection, schedule: Q01DX011 (ip), vehicle: saline): 44 % of control | T/C (dose: 0.13 mg/kg/injection, schedule: Q01DX011 (ip), vehicle: saline): 61 % of control | T/C (dose: 0.15 mg/kg/injection, schedule: Q01DX011 (ip), vehicle: saline): 21 % of control | T/C [2]: 12 % of control | T/C (dose: 0.25 mg/kg/injection, schedule: Q02DX006 (ip), vehicle: saline): 80 % of control | T/C (dose: 0.3 mg/kg/injection, schedule: Q01DX011 (ip), vehicle: saline): 5 % of control | T/C (dose: 0.5 mg/kg/injection, schedule: Q01DX011 (ip), vehicle: saline): 19 % of control | T/C (dose: 0.5 mg/kg/injection, schedule: Q02DX006 (ip), vehicle: saline): 121 % of control

Cn1cnc([N+](=O)[O-])c1Sc1nc(N)nc2nc[nH]c12
T/C (dose: 5.0 mg/kg/injection, schedule: Q01DX011 (oral), vehicle: saline): 2 % of control

CCCCNc1ncnc2c1cnn2C
T/C [6]: 3 % of control | T/C [4]: 13 % of control

O=c1[nH]c(=O)n(C2CC(O)C(CO)O2)cc1C(F)(F)F (stereo not given)
T/C (dose: 12.5 mg/kg/injection, schedule: Q01DX011 (ip), vehicle: saline): 81 % of control | T/C [7]: 52 % of control | T/C [4]: 27 % of control | T/C (dose: 100.0 mg/kg/injection, schedule: Q01DX011 (ip), vehicle: saline): 27 % of control

Clc1cc(N2CC2)nc(N2CC2)n1
T/C (dose: 5.0 mg/kg/injection, schedule: Q02DX006 (ip), vehicle: other): 79 % of control | T/C (dose: 7.5 mg/kg/injection, schedule: Q02DX006 (ip), vehicle: other): 72 % of control | T/C [8]: 18 % of control

NC(=S)N/N=C/c1cccc([N+](=O)[O-])c1
T/C (dose: 75.0 mg/kg/injection, schedule: Q02DX006 (ip), vehicle: saline): 36 % of control | T/C (dose: 100.0 mg/kg/injection, schedule: Q02DX006 (ip), vehicle: saline): 47 % of control

CCOC(=O)n1cnc2ncnc(N)c21
T/C (dose: 25.0 mg/kg/injection, schedule: Q01DX011 (ip), vehicle: carboxymethylcellulose (CMC)): 56 % of control | T/C (dose: 75.0 mg/kg/injection, schedule: Q01DX011 (ip), vehicle: carboxymethylcellulose (CMC)): 104 % of control

CN(C)C1C(=O)C(C(N)=O)=C(O)C2(O)C(=O)C3=C(O)c4c(O)cccc4C(C)(O)C3C(O)C12 (stereo not given)
T/C (dose: 125.0 mg/kg/injection, schedule: Q02DX006 (ip), vehicle: water): 58 % of control | T/C (dose: 150.0 mg/kg/injection, schedule: Q02DX006 (ip), vehicle: water): 106 % of control

Cn1cnc2[nH]cnc(=S)c21
T/C (dose: 50.0 mg/kg/injection, schedule: Q01DX011 (ip), vehicle: carboxymethylcellulose (CMC)): 110 % of control | T/C (dose: 200.0 mg/kg/injection, schedule: Q01DX011 (ip), vehicle: saline): 45 % of control | T/C [9]: 30 % of control | T/C (dose: 400.0 mg/kg/injection, schedule: Q01DX011 (ip), vehicle: saline): 22 % of control

O=P1(N(CCF)CCF)NCCCO1 (stereo not given)
T/C (dose: 0.94 mg/kg/injection, schedule: Q01DX011 (ip), vehicle: saline): 40 % of control | T/C (dose: 1.88 mg/kg/injection, schedule: Q01DX011 (ip), vehicle: saline): 56 % of control | T/C (dose: 3.75 mg/kg/injection, schedule: Q01DX011 (ip), vehicle: saline): 22 % of control

N/C(=N/N=C/c1ccc([N+](=O)[O-])cc1)N[N+](=O)[O-]
T/C [10]: 53 % of control | T/C [11]: 37 % of control

CCC(C)N1C(=O)CCC1=O (stereo not given)
T/C (dose: 4.7 mg/kg/injection, schedule: Q01DX011 (ip), vehicle: saline): 102 % of control | T/C (dose: 9.4 mg/kg/injection, schedule: Q01DX011 (ip), vehicle: saline): 103 % of control | T/C (dose: 18.8 mg/kg/injection, schedule: Q01DX011 (ip), vehicle: saline): 123 % of control | T/C (dose: 37.5 mg/kg/injection, schedule: Q01DX011 (ip), vehicle: saline): 119 % of control | T/C [12]: 59 % of control | T/C [13]: 95 % of control

COC(=O)C(N)CCl (stereo not given)
T/C [10]: 74 % of control | T/C [11]: 83 % of control

Nc1ncnc2[nH]ncc12
T/C [8]: 28 % of control | T/C [3]: 7 % of control and 22 % of control | T/C [5]: 9 % of control | T/C (dose: 20.0 mg/kg/injection, schedule: Q02DX006 (ip), vehicle: other): 16 % of control | T/C (dose: 40.0 mg/kg/injection, schedule: Q02DX006 (ip), vehicle: other): 4 % of control

CCOc1ccccc1C(=O)Nc1ccc(Br)cc1
T/C [12]: 94 % of control | T/C [13]: 98 % of control | T/C [9]: 75 % of control | T/C (dose: 600.0 mg/kg/injection, schedule: Q01DX011 (ip), vehicle: saline): 51 % of control
